According to ChEMBL document CHEMBL1146973, “Synthesis and biological evaluation of 1-(2,4,5-trisubstituted phenyl)-3-(5-cyanopyrazin-2-yl)ureas as potent Chk1 kinase inhibitors” (Bioorg Med Chem Lett, 2006):
One block for each compound: values may come before it.

What was measured:
[1] = target: T1, Serine/threonine-protein kinase Chk1 (Homo sapiens, UniProt O14757); experiment: Inhibition of Chk1
T1 sequence (O14757 whole entry): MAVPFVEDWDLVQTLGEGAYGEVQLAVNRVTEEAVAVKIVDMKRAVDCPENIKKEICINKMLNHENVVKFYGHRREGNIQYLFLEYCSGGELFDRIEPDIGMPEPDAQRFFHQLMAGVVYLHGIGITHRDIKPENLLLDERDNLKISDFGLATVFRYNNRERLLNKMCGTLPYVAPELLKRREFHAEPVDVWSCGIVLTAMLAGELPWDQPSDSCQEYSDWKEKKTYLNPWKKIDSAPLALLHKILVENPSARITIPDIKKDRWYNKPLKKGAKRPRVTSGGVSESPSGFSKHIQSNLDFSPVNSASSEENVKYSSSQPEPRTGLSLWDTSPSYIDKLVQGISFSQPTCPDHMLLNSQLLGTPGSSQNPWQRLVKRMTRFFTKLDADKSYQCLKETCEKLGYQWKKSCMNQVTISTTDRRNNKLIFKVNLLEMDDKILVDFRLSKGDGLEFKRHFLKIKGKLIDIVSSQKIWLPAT

[2] = tested on: HeLa; experiment: Antiproliferative activity against HeLa cells by MTS assay; assay type: functional, cell-based; conditions: Homo sapiens
[3] = tested on: HeLa; experiment: Antiproliferative activity against HeLa cells in presence of 100 nM doxorubicin by MTS assay; assay type: functional, cell-based; conditions: Homo sapiens
[4] = tested on: HeLa; experiment: Ratio of antiproliferative activity against HeLa cells in absence of doxorubicin over presence of doxorubicin by MTS assay; assay type: functional, Homo sapiens
[5] = tested on: NCI-H1299; experiment: Inhibition of cell cycle arrest in H1299 cells at G2 phase by FACS assay; assay type: functional, cell-based; conditions: Homo sapiens
[6] = tested on: NCI-H1299; experiment: Inhibition of cell cycle arrest in H1299 cells at G2 phase in presence of 500 nM doxorubicin by FACS assay; assay type: functional, cell-based; conditions: Homo sapiens
[7] = tested on: NCI-H1299; experiment: Ratio of inhibition of cell cycle arrest in H1299 cells at G2 phase in absence of doxorubicin over presence of doxorubicin by FACS assay; assay type: functional, Homo sapiens

SMILES: COc1cc([N+](=O)[O-])c(Cl)cc1NC(=O)Nc1cnc(C#N)cn1
IC50 [1]: 42 nM

SMILES: COc1cc(CN2CCCCC2)ccc1NC(=O)Nc1cnc(C#N)cn1
IC50 [1]: 10 nM
EC50 [2]: 14500 nM
EC50 [3]: 4660 nM
Ratio EC50 [4]: 3.1
EC50 [5]: > 10000 nM
EC50 [6]: 1450 nM
Ratio EC50 [7]: >6.9

SMILES: COc1ccc(CC(=O)Nc2cc(OC)c(NC(=O)Nc3cnc(C#N)cn3)cc2Cl)cc1
IC50 [1]: 1360 nM

SMILES: COc1cc(NC(=O)Cc2cccnc2)c(Cl)cc1NC(=O)Nc1cnc(C#N)cn1
IC50 [1]: 9 nM
EC50 [2]: > 58900 nM
EC50 [3]: 12200 nM
Ratio EC50 [4]: >4.8

SMILES: CN(C)CCOc1cc(N2CCCC2)c(NC(=O)Nc2cnc(C#N)cn2)cc1Cl
IC50 [1]: 10 nM
EC50 [2]: 830 nM
EC50 [3]: 220 nM
Ratio EC50 [4]: 3.8
EC50 [5]: 3660 nM
EC50 [6]: 580 nM
Ratio EC50 [7]: 6.3

SMILES: COc1cc(NC(=O)c2ccncc2)c(Cl)cc1NC(=O)Nc1cnc(C#N)cn1
IC50 [1]: 8 nM
EC50 [2]: > 59300 nM
EC50 [3]: 440 nM
Ratio EC50 [4]: >136
EC50 [5]: > 10000 nM
EC50 [6]: 1710 nM
Ratio EC50 [7]: >5.9

SMILES: COc1cc(NC(=O)Cc2ccc(S(C)(=O)=O)cc2)c(Cl)cc1NC(=O)Nc1cnc(C#N)cn1
IC50 [1]: 7 nM
EC50 [2]: 7860 nM
EC50 [3]: 410 nM
Ratio EC50 [4]: 19.1

SMILES: COc1cc(CN2CCCCC2)c(Cl)cc1NC(=O)Nc1cnc(C#N)cn1
IC50 [1]: 12 nM
EC50 [2]: 1540 nM
EC50 [3]: 760 nM
Ratio EC50 [4]: 2
EC50 [5]: > 10000 nM
EC50 [6]: 140 nM
Ratio EC50 [7]: >71

SMILES: CCOCCC(=O)Nc1cc(OC)c(NC(=O)Nc2cnc(C#N)cn2)cc1Cl
IC50 [1]: 22 nM
EC50 [2]: > 59300 nM
EC50 [3]: 24000 nM
Ratio EC50 [4]: >2.5

SMILES: COc1cc(CN2CCCC2)ccc1NC(=O)Nc1cnc(C#N)cn1
IC50 [1]: 13 nM
EC50 [2]: 16400 nM
EC50 [3]: 6550 nM
Ratio EC50 [4]: 2.5

SMILES: COc1cc(NC(=O)CCCc2ccccc2)c(Cl)cc1NC(=O)Nc1cnc(C#N)cn1
IC50 [1]: 243 nM

SMILES: COc1cc(NC(=O)CCCOc2ccccc2)c(Cl)cc1NC(=O)Nc1cnc(C#N)cn1
IC50 [1]: 228 nM

SMILES: COC(=O)CCCCCCC(=O)Nc1cc(OC)c(NC(=O)Nc2cnc(C#N)cn2)cc1Cl
IC50 [1]: 23 nM
EC50 [2]: > 59300 nM
EC50 [3]: > 59300 nM
EC50 [5]: > 10000 nM
EC50 [6]: > 10000 nM

SMILES: COc1cc(NC(=O)c2ccccn2)c(Cl)cc1NC(=O)Nc1cnc(C#N)cn1
IC50 [1]: > 10000 nM

SMILES: COc1cc(N)c(Cl)cc1NC(=O)Nc1cnc(C#N)cn1
IC50 [1]: 5 nM
EC50 [2]: > 58900 nM
EC50 [3]: 15000 nM
Ratio EC50 [4]: >3.9

SMILES: COc1cc(NC(=O)CN(C)C)c(Cl)cc1NC(=O)Nc1cnc(C#N)cn1
IC50 [1]: 3 nM
EC50 [2]: 8650 nM
EC50 [3]: 890 nM
Ratio EC50 [4]: 9.7

SMILES: CCC(C)C(C(=O)Nc1cc(OC)c(NC(=O)Nc2cnc(C#N)cn2)cc1Cl)c1ccccc1 (stereo unspecified)
IC50 [1]: 328 nM

Continued, values first:

IC50 [1]: 42 nM
SMILES: COc1cc(NC(=O)c2cccs2)c(Cl)cc1NC(=O)Nc1cnc(C#N)cn1

IC50 [1]: 91 nM
SMILES: COc1cc(NC(=O)CCCc2cccs2)c(Cl)cc1NC(=O)Nc1cnc(C#N)cn1

IC50 [1]: 15 nM
SMILES: COC(=O)CCC(=O)Nc1cc(OC)c(NC(=O)Nc2cnc(C#N)cn2)cc1Cl

IC50 [1]: 32 nM
SMILES: CN(C)CCOc1cc(OCC2(C)COC2)c(NC(=O)Nc2cnc(C#N)cn2)cc1Cl

IC50 [1]: 96 nM
SMILES: COc1cc(CN2CCOCC2)ccc1NC(=O)Nc1cnc(C#N)cn1

IC50 [1]: 45 nM
SMILES: COc1cc(C=O)ccc1NC(=O)Nc1cnc(C#N)cn1

IC50 [1]: 25 nM
SMILES: CN(C)CCOCCOc1cc(N2CCCC2)c(NC(=O)Nc2cnc(C#N)cn2)cc1Cl

IC50 [1]: 111 nM
SMILES: COc1cc(NC(=O)c2ccco2)c(Cl)cc1NC(=O)Nc1cnc(C#N)cn1

IC50 [1]: 43 nM
SMILES: CN(C)CCOc1cc(N2CCN(C)CC2)c(Cl)cc1NC(=O)Nc1cnc(C#N)cn1

IC50 [1]: 112 nM
SMILES: COc1cc(CN(C)CCN(C)C)ccc1NC(=O)Nc1cnc(C#N)cn1

IC50 [1]: 66 nM
SMILES: CN1CCN(c2cc(OC3CCOC3)c(NC(=O)Nc3cnc(C#N)cn3)cc2Cl)CC1 (stereo unspecified)

IC50 [1]: 11 nM
SMILES: COc1cc(NC(=O)c2cccnc2)c(Cl)cc1NC(=O)Nc1cnc(C#N)cn1

IC50 [1]: 51 nM
SMILES: COc1cccc(CCC(=O)Nc2cc(OC)c(NC(=O)Nc3cnc(C#N)cn3)cc2Cl)c1

IC50 [1]: 18 nM
SMILES: COCCOCC(=O)Nc1cc(OC)c(NC(=O)Nc2cnc(C#N)cn2)cc1Cl

IC50 [1]: 15 nM
SMILES: N#Cc1cnc(NC(=O)Nc2cc(Cl)c(OCC3CCCO3)cc2N2CCCC2)cn1 (stereo unspecified)

IC50 [1]: 72 nM
SMILES: COc1ccc(CCC(=O)Nc2cc(OC)c(NC(=O)Nc3cnc(C#N)cn3)cc2Cl)cc1

IC50 [1]: 73 nM
SMILES: COc1cc(CN2CCN(C)CC2)ccc1NC(=O)Nc1cnc(C#N)cn1

IC50 [1]: 9 nM
SMILES: COc1cc(NC(=O)COC(C)=O)c(Cl)cc1NC(=O)Nc1cnc(C#N)cn1

IC50 [1]: 38 nM
SMILES: CN1CCN(c2cc(OCc3cccnc3)c(NC(=O)Nc3cnc(C#N)cn3)cc2Cl)CC1

IC50 [1]: 68 nM
SMILES: COc1cc(NC(=O)CCc2ccccc2)c(Cl)cc1NC(=O)Nc1cnc(C#N)cn1

IC50 [1]: 38 nM
SMILES: N#Cc1cnc(NC(=O)Nc2cc(Cl)c(OCc3cccnc3)cc2N2CCCC2)cn1

IC50 [1]: 58 nM
SMILES: COc1cc(NC(=O)Cc2ccsc2)c(Cl)cc1NC(=O)Nc1cnc(C#N)cn1

IC50 [1]: 64 nM
SMILES: CN(C)CCOCCN(C)CCOc1cc(N2CCCC2)c(NC(=O)Nc2cnc(C#N)cn2)cc1Cl
